Melting point data for 35 molecules are collected here from a melting point compilation (Tetko et al.; mined from patent text by program, amines drawn as free bases though some values may be those of a salt).

Where only a bound is given, the exact number is not on record here.

By melting point is commonly meant the temperature, or range, at which the solid turns liquid. `COC(=O)NCC1CN(c2ccc(-n3cnc(Cn4cccn4)c3)c(F)c2)C(=O)O1` (stereo not given) registered a melting point of 130 °C. With `Cc1ccc(S(=O)(=O)OC[C@H]2CN(c3cccc(F)c3)C(=O)O2)cc1` the figure was 114 to 115 °C; with `COC(=O)c1cc2c(C)ccc(C)c2n1C(=O)Oc1ccccc1`, 83 to 84 °C.

In turn, `COc1ccccc1SC(c1ccccc1)c1c(O)cc(-c2ccccc2)oc1=O` (stereo not given) registered a melting point of 165 to 170 °C. To `Cc1c(C)c(Cl)c(C(=O)c2ccccc2)c(C)c1Cl` belongs 105 to 107 °C; to `CN1C(=O)N(CC(COc2ccc(-c3ccc(S(N)(=O)=O)cc3)cc2)N(O)C=O)C(=O)C1(C)C` (stereo not given), 203 to 205 °C. To `CC(C)(C)OC(=O)N1CCN(CCCC2(C)Cn3cc([N+](=O)[O-])nc3O2)CC1` (stereo not given) belongs 166 to 167 °C; to `N#CC1(N2C(=O)C3=C(CCCC3)C2=O)CCCCC1`, 55.5 to 56.5 °C; to `CCc1cccc(CC)c1N(Cc1c[nH]nn1)C(=O)c1ccccc1`, 112 to 115 °C. `O=C(O)c1cccc(C(=O)O)c1Nc1cccc(I)c1`: the melting point was 214 to 216 °C. In turn, `O=C1Nc2ccc(F)c(F)c2C(=O)N2CC[C@@H]12` displayed a melting point greater than 250 °C. Molecule `CCn1cc(C(=O)O)c(=O)c2cc(F)c(N3CCNC(c4sc5ccc(Cl)cc5c4C)C3)cc21` (stereo not given) yielded a melting point of 300 to 305 °C. `COc1cc(OCC(CO)CO)c(-c2cccs2)cc1C=CC(=O)c1ccc(S(N)(=O)=O)cc1` returned a melting point of 191 to 192 °C. As to `O=C(NCCN1CCOCC1)Nc1nc2ccc(OCc3c(Cl)cccc3Cl)cc2s1`, the melting point was 268 to 271 °C. Turning to `CCc1ccc(-c2cccc(-c3ccnc4c(C(=O)c5cccs5)cnn34)c2)cc1`, the melting point lay in the range of 117 to 119 °C. The molecule `COc1cc(/C=C/c2ccc(C(C)(C)C)cc2)cc(OC)c1OC` gave a melting point of 127 to 128 °C. `COC(=O)CN1C(=S)CN=C(c2ccccc2Cl)c2ccccc21` displayed a melting point of 183 to 184 °C. To `CCOC(=O)c1cnc2nn(C)cc2c1NC(C)C` belongs 168 to 170 °C. Molecule `COc1ccc(S(=O)(=O)N2C(=O)C(c3ccccc3OC)(N3c4ccccc4C[C@H]3C(=O)N(C)C)c3cc(Cl)ccc32)c(OC)c1` (stereo not given in full) displayed a melting point of 167 °C. `ClC(Cl)(Cl)c1cnnc2ccccc12` returned a melting point of 137 °C. With `COc1ccc(C(=O)CC(Cc2ccccc2)C(=O)O)cc1` (single isomer, unassigned; (+)) the figure was 93 °C; with `COC(=O)CC1CCCN(C(=O)c2ccc(N3CCCC3)cc2Cl)c2ccccc21` (stereo not given), 158 °C; with `CC(=S)Nc1ccc(-c2nc3ccccc3s2)cc1`, 222 to 223 °C. Consider `CCCCCCCCCCCCNC(=O)Oc1ccc2oc3ccccc3c2c1`, for which the melting point was in the range of 112 to 114 °C. With `Nc1cnccc1N1CCc2ccccc21` the figure was 89 °C. To `COC(=O)c1cccc(-c2ncc(N=CN(C)C)cn2)c1` belongs 146 °C; to `O=C1CCC(c2ccc(O)cc2)CC1`, 165 to 166 °C. On to `COc1ccc2c(c1)OC(c1ccc(Cl)cc1)CC2=O` (stereo not given), for which the melting point lay within 97 to 99 °C. For the molecule `Fc1ccc(Nc2ncnc3cnc(NC4CCNCC4)nc23)cc1Cl`, the melting point lay within 239 to 243 °C.

As to `Cc1nc2c(N[C@@H]3c4ccccc4C[C@H]3O)cc(C(=O)N(C)C)cn2c1C` (relative stereo), the melting point lay within 148 to 149 °C. Turning to `O=C(NCc1ccc(Cl)cc1)c1cnc2ccc(Br)cc2c1O`, the melting point was in the range of 282 to 283 °C.

As for `CC(=O)N1c2ccccc2C[C@H]1C#N`, the melting point lay within 134 to 135 °C. To `CC(C)(OCc1cc(-c2ccc(Cl)cc2)no1)C(=O)O` belongs 130 to 134 °C.

As for `CCOC(=O)c1cnc2c(OC)csc2c1Cl`, the melting point was 135 to 137 °C.

As to `COCCc1cccc2oc(C(=O)Nc3ccc(-c4ccc(S(=O)(=O)NC(C(=O)O)C(C)C)cc4)cc3)c(C)c12` (stereo not given), the melting point was 100 to 110 °C.
